{"source": "patent US11318108B2", "about": "“Use of carotenoid derivatives to reduce the toxicity and increase the efficacy of anti-EGFR antitumor treatments” (ASSOCIAZIONE ONCOLOGICA MILANESE AMO LA VITA ONLUS, priority 2017, dated 2022)", "key": {"[1]": {"test_system": "cutaneous and/or mucosal toxicity induced by anti-EGFR drugs", "assay": "administration of lycopene to patients treated with anti-EGFR drugs", "assay_type": "in vivo", "description": "The regression has been so significant that patients, who could not shave the beard before the treatment with lycopene, could perform normal shaving after 2 weeks from the daily administration of lycopene."}, "[2]": {"settings": "cited from earlier work"}, "[3]": {"settings": "patients affected by paronychia due to anti-EGFR drugs"}, "[4]": {"settings": "dosage of treatment group A (6.5 mg tablets, 3 tablets/day)"}}, "data": [{"compound": "CC(C)=CCC/C(C)=C/C=C/C(C)=C/C=C/C(C)=C/C=C/C=C(C)/C=C/C=C(C)/C=C/C=C(\\C)CCC=C(C)C", "note": "[lycopene]", "values": [{"measurement": "regression of pustular injuries", "setting": "[1]; male patients of age between 35 and 55 years treated with anti-EGFR drugs, already presenting pustular injuries", "result": "significant regression"}, {"measurement": "time from daily administration until normal shaving possible", "setting": "[1]; male patients who could not shave the beard before treatment, daily administration", "result": 2, "unit": "weeks"}, {"measurement": "functional ability of hand fingers", "setting": "[1]; [3]", "result": "recover the lost functional ability"}, {"measurement": "nail growth and strength", "setting": "[1]; [3]", "result": "recover the normal nail growth and strength"}, {"measurement": "pain condition in paronychia", "setting": "[1]; [3]", "result": "improvement of the pain condition"}, {"measurement": "inflammation of paronychia", "setting": "[1]; patients affected by paronychia due to anti-EGFR drugs with functional disabling of the hand fingers", "result": "resolution of the inflammation"}, {"measurement": "regression of the rosiness (diffuse erythema of the face)", "setting": "[1]; patients treated with anti-EGFR drugs", "result": "significant regression of the rosiness"}, {"measurement": "onset/extension of rosiness coloration", "setting": "[1]; some patients not yet affected by erythema", "result": "delayed and/or decreased the extension of such coloration"}, {"measurement": "side effects during chronic intake", "setting": "[2]; chronic intake, several studies", "result": "absence of relevant side effects"}, {"measurement": "observed safe level of intake (OSL)", "setting": "[2]; chronic intake", "result": "up to 75 mg/day"}, {"measurement": "antioxidant effects at the trial dosage", "setting": "[2]; [4]", "result": "significant antioxidant effects"}, {"measurement": "side effects at the trial dosage", "setting": "[2]; [4]", "result": "not to have relevant side effects"}]}]}
